{"source": "patent US20160032347A1", "about": "“NOVEL METHOD AND DEVICE FOR WHOLE-CELL BACTERIAL BIO-CAPACITOR CHIP FOR DETECTING CELLULAR STRESS INDUCED BY TOXIC CHEMICALS” (Sabanci Universitesi, priority 2011, published 2016)", "origin": "cited, not measured here", "test_system": "E. coli", "conditions": "previous studies; ~6.5%"}
{"molecule": "[Cl-].[Na+]", "note": "[NaCl, sodium chloride]", "values": [{"measurement": "salt tolerance level reported for E. coli", "value": "up to 1.1 M"}]}
